From patent US4035394A, “5-Phenyl-2-furanyl-oxo or-hydroxy alkanoic acids and ethyl esters as gastric acid antisecretory agents” (Morton-Norwich Products, Inc., priority 1976, dated 1977)

Tested on: gastric acid secretion
Experiment: modified standard pylorus-ligated secretory testing procedure in the rat
Format: in vivo, Sprague-Dawley rat
Details: 300 mg/kg p.o. suspension in 0.5% Methocel 1 hour prior to pylorus ligation, 4 hours after ligation; for % Inhibition Gastric Acid Output: titration to pH7, vs control; for % Inhibition Vol. of Gastric Secretion: vs control
Experimental: Such effect is evidenced using a modified standard pylorus-ligated secretory testing procedure in the rat. Sprague-Dawley rats, weighing 180-210 g and previously fasted for 24 hours, were used. All compounds were given perorally as suspensions in 0.5% Methocel 1 hour prior to pylorus ligation. Under light ether anesthesia, the rat stomach was ligated at the pylorus region. Four hours after ligation the conscious rat was sacrificed by a chloroform overdose. The stomach was carefully excised and its content drained into a centrifuge tube. Samples were centrifuged to separate secretions from debris. Gastric fluid volume reading and determination of sample contamination, based on debris and sample color, was made. Titration was performed on a sample aliquot of 1 ml diluted to a volume of 5 ml using distilled water. The titrant used was 0.1N NaOH. Total gastric acid output in the stomach was determined by titration to pH7. A dose of 300 mg/kg p.o. of a compound was administered to a group of rats and its effect on the volume of gastric secretion and acid output compared to a control group receiving 0.5% Methocel p.o. The activity of each compound based on the degree of inhibition of gastric acid output is set forth in Table I.

CCOC(=O)CC(O)c1ccc(-c2ccc([N+](=O)[O-])cc2)o1 (stereo not drawn) [Example I, Ethyl 3-[5-(4-Nitrophenyl)-2-furanyl]-3-hydroxypropanoate]
% Inhibition Gastric Acid Output: 43.1%
% Inhibition Vol. of Gastric Secretion: 33.17%

O=C(O)CCC(O)c1ccc(-c2ccc(Cl)cc2)o1 (stereo not drawn) [II, 4-[5-(4-Chlorophenyl)-2-furanyl]-4-hydroxybutanoic Acid]
% Inhibition Gastric Acid Output: 72.3%
% Inhibition Vol. of Gastric Secretion: 47.3%

O=C(O)CC(O)c1ccc(-c2ccccc2Cl)o1 (stereo not drawn) [III, 3-[5-(2-Chlorophenyl)-2-furanyl]-3-hydroxypropanoic Acid]
% Inhibition Gastric Acid Output: 95.0%
% Inhibition Vol. of Gastric Secretion: 33.5%

O=C(O)CCC(=O)c1ccc(-c2ccc(Cl)cc2)o1 [IV, B]
% Inhibition Gastric Acid Output: 57.1%
% Inhibition Vol. of Gastric Secretion: 40.7%

O=C(O)CC(O)c1ccc(-c2ccc(Cl)cc2Cl)o1 (stereo not drawn) [V, 3-[5-(2,4-Dichlorophenyl)-2-furanyl]-3-hydroxypropanoic Acid]
% Inhibition Gastric Acid Output: 45.4%
% Inhibition Vol. of Gastric Secretion: 3.4%

CCOC(=O)CC(=O)c1ccc(-c2ccc(Cl)cc2)o1 [VI, B]
% Inhibition Gastric Acid Output: 50.0%
% Inhibition Vol. of Gastric Secretion: 19.8%
